# Experimental data published in publication PMC10667816, “A Cell‐Penetrant Peptide Disrupting the Transcription Factor CP2c Complexes Induces Cancer‐Specific Synthetic Lethality” (Advanced Science, 2023).
# Where a SMILES comes first, the peptide text is derived from it.
# Experiments:
# [1] = tested on: U343 glioma cells; experiment: U343 CDX mouse model; type: in vivo; conditions: intravenous injection every 2 or 3 days from day 14
# Experimental: (§1) Animal experiments were conducted in accordance with ethical guidelines, and all protocols were approved by the Institutional Animal Care and Use Committee under Hanyang University (approval numbers, 2014‐0016A, 2018‐0049A, 2018‐0207A, and 2019‐0169A), Chung‐Ang University (approval number, 2015‐00022), Chungbuk University (approval number, CBNUA‐1072‐17‐02), and Konkuk University (approval number, KU17130). To establish xenograft mice models, Hep3B, A431, U343, and PC9 cells were subcutaneously injected into the flank of Balb/c nude mice. For the MDA‐MB‐231 (LM1) cell line, it was implanted into the mammary fat pad of immunodeficient mice (NPG mice). […] Tumor volume was calculated using the formula of length × width^2)/2. […] The in vivo administration amount was determined based on the concentration of ACP52C confirmed at the cellular level, which was 2 µM. […] For ACP52C derivatives, the amount was adjusted to ensure a similar molar quantity of peptide injection, taking their molecular weights into account. For instance, in the case of ACP52CGK, ≈1.67 times the quantity was used compared to ACP52C to achieve an equivalent molar quantity. […] Hematoxylin and eosin (H&E)‐stained tissue sections were analyzed and photographed, and the representative histological images were recorded. […]
# [2] = tested on: hepatocellular carcinoma and breast cancer patient‐derived cancer cells; experiment: Sensitivity of patient‐derived cancer cells; type: cell-based, human; conditions: preliminary data
# Experimental: For primary cell culture, tumor tissue samples obtained from patients undergoing surgery were finely minced, washed with phosphate buffered saline (PBS) containing penicillin/streptomycin, and then treated with trypsin solution at 37 °C for up to 20 min. The resulting cell suspension was filtered through a strainer (BD Falcon, 352235). The filtered cells were maintained in EpiX media, which consists of keratinocyte serum free medium (KSFM; Gibco, 17005042) supplemented with 50 µg mL^−1 bovine pituitary extract (Gibco, 13028014), 5 ng mL^−1 human epidermal growth factor (EGF; Thermo Fisher, PHG0311L), 1 µM TGF beta inhibitor (A83‐01; Sigma–Aldrich, SML0788), 5 µM ROCK inhibitor (Y27632; Sigma–Aldrich, Y0503), and 3 µM isoproterenol (Sigma–Aldrich, I6504). The culture medium was refreshed daily. For organoid culture, portions of human tissue samples were separated and transported to the laboratory on ice within 1 h of removal from the patients in cold Hank's balanced salt solution (HBSS) with antibiotics. […]
# [3] = tested on: A431 epidermoid carcinoma; experiment: A431 CDX mouse model; type: in vivo; conditions: intravenous injection every 2 or 3 days from day 14
# Experimental: as §1
smiles,measurement,setting,value
CC(=O)N[C@@H](CC(N)=O)C(=O)N[C@@H](Cc1ccc(O)cc1)C(=O)N1CCC[C@H]1C(=O)N[C@@H](CCC(N)=O)C(=O)N[C@@H](CCCNC(=N)N)C(=O)N1CCC[C@H]1C(=O)N[C@@H](CS)C(=O)N[C@@H](CCCNC(=N)N)C(=O)NCC(=O)N[C@@H](CC(=O)O)C(=O)N[C@@H](CCCCN)C(=O)NCC(=O)N1CCC[C@H]1C(=O)N[C@@H](CC(=O)O)C(=O)N[C@@H](CS)C(N)=O [ACP52C] (Ac-NYPQRPCRGDKGPDC-NH2),tumor weight,[1],significantly reduced tumor weight
same,fraction of patient‐derived cancer cells showing sensitivity,[2],over 85%
same,tumor weight,[3],significantly reduced tumor weight
